Experiment [1] deals with scopolamine and MK801-induced cognitive impairment. As to the kind of experiment: Example 5: Y-maze test, scopolamine and MK801-induced deficits, co-administration with donepezil (Table 102). The format is in vivo, ddY mouse. The conditions noted are these: Donepezil 10 mg/kg, p.o. alone. From the text: (§1) Thus, scopolamine-induced cognitive impairment model, one of the AD-like model, has been used to predict pharmacodynamic signals of putative procognitive compounds, utilizing the acetylcholinesterase inhibitor donepezil for illustration (See, Citations 1 and 2). The present inventors investigated the effect of each compound on reversal of scopolamine-induced deficits in performance of Y-maze test in mice, and they also investigated adjunctive effect of compounds with donepezil on reversal of deficits induced by scopolamine and MK801 in mice.
(§2) Used animal: ddY mouse (SLC)
(§3) In the experiments, the mice were grouped in the same way using Stat Preclinica (Version 1.03295; Takumi Information Technology Inc.). The selected mice were divided into 5 to 7 groups of 7 to 12 mice using the “completely randomization design by the single variable” program (Analytical program version 1.0.7), with body weight on the testing day. After grouping, p values for Bartlett's test and ANOVA across all groups were greater than 0.2, indicating no significant difference in this parameter among the groups.
The required amount of each compound was weighed and put into a glass homogenizer. The required amount of 0.5% MC (methyl cellulose) solution was added, and each compound was suspended to give a 10 mg/kg dosing suspension.
The required amount of donepezil was weighed and put into a glass homogenizer. The required amount of 0.5% MC solution was added, and donepezil was suspended to give a suspension at concentration of 1 mg/mL (10 mg/kg dosing suspension).
(§4) The required amount of scopolamine and MK801 were weighed, and saline was added to it to give 0.3 mg/mL and 0.015 mg/mL solution, respectively.
(§5) 90 Min before the test, the mice were orally administered each compound, donepezil, and vehicle (0.5% methyl cellulose, 10 mL/kg). After 60 min, memory impairment was induced by administering scopolamine (0.6 mg/kg, s.c.) with (co-administration) or without (mono-administration) MK801 (0.03 mg/kg, s.c.). The control group received saline (2 mL/kg, s.c.) rather than scopolamine and MK801.
(§6) The Y-maze used herein is a three-arm maze with equal angles between all arms. The mazefloor and walls were constructed from black acrylic resin. The mice were initially placed within one arm, and the sequence and number of arm entries were recorded manually for each mouse over an 8-min period.
(§7) Data were processed and analyzed with Microsoft® Office Excel 2003. The alternation behavior was defined as entries into all three arms on consecutive occasions. The percent alternation behavior in each animal was calculated using the following formula, and rounded to one decimal place.
(§8) Alternation behavior(%)=[actual alternation/(total arm entries−2)]×100
(§9) Restoration ratio of alternation behavior (%) in each animal was calculated using the following formula, and rounded to one decimal place.
(§10) Restoration ratio of alternation behavior in each animal (%)=y Alternation behavior in each animal (%)=x Mean of alternation behavior in vehicle-treated group (group No. 1) (%)=A Mean of alternation behavior in scopolamine-treated group (group No. 2) (%)=B
(§11) Data were expressed as the mean of the percent alternation behavior, the number of total arm entries and the restoration ratio of alternation behavior.
(§12) Values of Y-maze tests are expressed as mean of alternation behavior (n=7−12).
(§13) Alternation behaviors in the scopolamine-treated groups were compared to those in the control groups using Wilcoxon rank sum test (Stat preclinical; Version 1.03295; Takumi Information Technology Inc.) with a two-sided significance level of 0.05.
Restoration of alternation behavior was analyzed using Stat Preclinica. Alternation behaviors in the Donepezil (10 mg/kg, p.o.)-treated group were compared to those in the co-administrated groups of test compounds with donepezil (10 mg/kg, p.o.) using non-parametric Dunnett multiple comparison test (Analytical program version 1.0.2) with a two-sided significance level of 0.05.

Experiment [2] addresses T1, 5-HT4 receptor (Cavia porcellus, UniProt O70528).
T1 construct: striatum was isolated which was cryopreserved at −80° C. until use; from tissue; host or cells: guinea pig (Slc-Hartley) striatum membranes
As to the kind of experiment: Test Example 1: Serotonin 4 (5-HT4) receptor binding assay, [3H]-GR113808, guinea pig striatum membranes (Table 96). The conditions noted are these: Guinea pig 5-HT4 receptor binding assay, [3H]-GR113808, striatum membranes; mean value of each group. As to the method:
The 5-HT4 receptor binding assay and preparations of receptor membrane preparations herein were carried out according to a method of Grossman et al. [see, British J. Pharmacol., (1993) 109, 618].
Slc-Hartley guinea pigs (body weight 300 g to 400 g) were decapitated to remove brain rapidly, and striatum was isolated which was cryopreserved at −80° C. until use. To the obtained tissues were added fifteen fold of Hepes buffer (50 mM, pH 7.4, 4° C.), and the mixture was homogenized by Teflon (trademark) homogenizer and centrifuged at 48,000×g (4° C.) for 15 minutes. To the resulting precipitate was added Hepes buffer (1 ml) to 30 mg by wet weight of tissues, and the mixture was suspended to give receptor membrane preparations.
To an assay tube were added 0.1 nM [^3H]-GR113808 {chemical name: [1-[2-(methylsulfonylamino)ethyl]-4-piperidinyl]methyl 1-methylindole-3-carboxylate}, receptor membrane preparations, and Hepes buffer (50 mM, pH 7.4, 4° C., 1 ml) containing test compounds or 30 μM serotonin; and the mixture was incubated at 37° C. for 30 minutes. On quenching the reaction, the mixture was rapidly filtered on whatman GF/B filter, which was presoaked in 0.1% polyethyleneimine for 1 hour, by using Brandel cell Harvester, and washed with ice-cooled 50 mM Tris-HCl (pH 7.7, 4 ml) three times. To the filter after filtration was added a liquid scintillator (Ecoscint), and then a radioactivity was determined by a liquid scintillation counter.
50% Inhibition concentrations (IC50) were determined from inhibition rates of test compounds to specific bindings which were obtained by subtracting nonspecific bindings from total binding amounts of [^3H]-GR113808.
(§14) In the following table, the compounds used in the test are shown in numbers which correspond to the Example numbers above where the preparations of the compounds are described.

In experiment [3] the target is T2, human 5-HT4b receptor (Homo sapiens, UniProt Q13639).
T2 construct: expressed in transfected cells; host or cells: CHO cells (G418 selection)
T2 sequence (Q13639 whole entry): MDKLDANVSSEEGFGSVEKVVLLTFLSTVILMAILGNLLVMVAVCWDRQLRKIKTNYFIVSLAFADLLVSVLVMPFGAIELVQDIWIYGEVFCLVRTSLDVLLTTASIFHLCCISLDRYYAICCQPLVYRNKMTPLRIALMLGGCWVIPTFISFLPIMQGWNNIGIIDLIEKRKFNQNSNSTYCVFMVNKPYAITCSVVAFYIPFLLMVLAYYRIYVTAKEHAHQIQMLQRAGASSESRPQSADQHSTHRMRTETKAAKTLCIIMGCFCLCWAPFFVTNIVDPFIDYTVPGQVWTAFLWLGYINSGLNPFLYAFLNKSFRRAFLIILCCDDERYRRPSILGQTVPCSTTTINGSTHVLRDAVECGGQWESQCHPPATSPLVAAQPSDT
As to the kind of experiment: Test Example 2: Serotonin 4 (5-HT4) receptor agonist activity assay, cAMP HTRF in CHO cells (Table 97). The format is cell-based. The settings on record: cAMP in CHO cells expressing human 5-HT4b receptor, mean value. As for the experimental part: The cAMP measurement test used herein was carried out by using CISBIO HTRF (trademark) cAMP Hirange kit according to the manufacturer's instructions attached therewith.
CHO cells expressing human 5-HT4b receptor were incubated in Medium 1 [DMEM/1% NEAA, 1% penicillin/streptomycin (P/S), 0.2 mg/mL GENETICIN (G418), 10% FBS] at 37° C. under 5% CO2 condition. Then, the cells were put into Medium 2 (DMEM/10000 cut FBS, G-418, P/S, NEAA) for 1 to 2 hours, and collected by treating with trypsin containing EDTA. The collected cells were suspended in Assay Buffer 1 [100 mM Hanks/HEPES buffer (pH 7.4)], the suspended cells were mixed with the testing compound on 384-well plates, and the cells were incubated at 31° C. for 15 minutes. To the cells were added cAMP-cryptate solution and cAMP-d2 solution, and they were incubated at room temperature for 1 hour. Then, time-resolved fluorescence was measured by En Vision (excitation wavelength: 330 nm, fluorescence wavelength: 620/665 nm). An intrinsic activity of the compound [IA (%)] and a concentration showing 50% of IA [EC50 (nM)] were calculated from the obtained results. In particular, the intrinsic activity (IA) was calculated on the basis of the maximal activity of 5-HT (measured from 10^−11 M to 10^−7 M) defined as 100%.
as §14
For orientation: Time-resolved FRET reads energy transfer from a long-lived donor to a nearby acceptor.

Experiment [4] relates to scopolamine-induced cognitive impairment. Put plainly: Example 5: Y-maze test, scopolamine-induced cognitive impairment, single-agent administration (Table 101). The format is in vivo, ddY mouse. The conditions noted are these: p.o., scopolamine-treated, # = P<0.05 vs scopolamine group.
Excerpt: as §1, §2, §3
The required amount of each compound was weighed and put into a glass homogenizer. […]
as §4, §5, §6, §7, §8, §9, §10, §11, §12, §13
Restoration of alternation behavior was analyzed using Stat Preclinica. Alternation behaviors in the vehicle-treated group were compared to those in the test substance-treated groups using non-parametric Dunnett multiple comparison test (Analytical program version 1.0.2) with a two-sided significance level of 0.05.

For experiment [5] the following is noted: animal experiment using rats; cited from earlier work.
For experiment [6] the following is noted: phase II clinical trial with AD patients; cited from earlier work.

Several values for one entry are separate records, joined by “and”; a condition that tells them apart may be missing. Identical values can stand only once. Marks after values point to notes of the source that are not given here.

T1 sequence (O70528 whole entry): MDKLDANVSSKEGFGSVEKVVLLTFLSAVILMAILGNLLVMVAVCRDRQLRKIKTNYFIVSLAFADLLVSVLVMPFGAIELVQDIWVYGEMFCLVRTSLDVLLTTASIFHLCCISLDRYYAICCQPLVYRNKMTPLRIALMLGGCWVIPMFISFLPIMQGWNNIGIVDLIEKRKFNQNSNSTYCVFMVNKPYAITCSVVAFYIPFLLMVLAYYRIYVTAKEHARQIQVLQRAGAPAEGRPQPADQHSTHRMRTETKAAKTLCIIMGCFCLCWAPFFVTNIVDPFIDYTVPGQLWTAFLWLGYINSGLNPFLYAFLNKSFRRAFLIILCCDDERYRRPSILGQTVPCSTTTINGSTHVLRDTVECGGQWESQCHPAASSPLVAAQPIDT

Consider `COc1cc2c(cc1OC)C(=O)C(CC1CCN(Cc3ccccc3)CC1)C2` (stereo not drawn) [Donepezil, donepezil, reference compound], for which the “Alternation behavior (%)” value in experiment [1] is 51.5^# % and 49.9^# %.

Usually IC50 stands for the concentration needed to halve the response being measured. A higher IC50 goes with lower potency. By EC50 is commonly meant the concentration at which the effect is half-maximal. A high value points to a less potent agent. `CCc1nn(-c2noc(C3CCN(CCC4CCOCC4)CC3)n2)c2cc(F)ccc12` [Example 137, 3-ethyl-6-fluoro-1-(5-{1-[2-(tetrahydro-2H-pyran-4-yl)ethyl]piperidin-4-yl}-1,2,4-oxadiazol-3-yl)-1H-indazole] returned an IC50 in experiment [2] of under 20 nM. Besides, in experiment [3] (0.25 h, intrinsic activity, maximal activity of 5-HT defined as 100%, read-out: IA (%)), the Emax was determined as 66%. The molecule further showed an EC50 in experiment [3] (concentration showing 50% of IA) of 8.6 nM. Further, the “Alternation behavior (%)” value in experiment [4] (compound 3 mg/kg) is on record as 49.3%; in experiment [4] (compound 10 mg/kg) it was 62.6^# %.

Take `CCc1nn(-c2noc(C3CCN(C[C@H]4CCN(C(C)=O)C4)CC3)n2)c2cc(F)ccc12.Cl` [Example 205, 1-[(3R)-3-({4-[3-(3-ethyl-6-fluoro-1H-indazol-1-yl)-1,2,4-oxadiazol-5-yl]piperidin-1-yl}methyl)pyrrolidin-1-yl]ethanone hydrochloride]: the “Alternation behavior (%)” value is given as 66.9^# % in experiment [4] (compound 1 mg/kg), 54.8% in experiment [4] (compound 3 mg/kg) and 66.7^# % in experiment [4] (compound 10 mg/kg).

Regarding `CCc1nn(-c2noc(C3CCN(CC4CN(C(=O)OC)C4)CC3)n2)c2c(F)cccc12` [Example 218, methyl 3-({4-[3-(3-ethyl-7-fluoro-1H-indazol-1-yl)-1,2,4-oxadiazol-5-yl]piperidin-1-yl}methyl)azetidine-1-carboxylate], the entries for the “Alternation behavior (%)” value in experiment [4] (compound 1 mg/kg), in experiment [4] (compound 3 mg/kg) and in experiment [4] (compound 10 mg/kg) were 59.9%, 53% and 61.3%, respectively.

Regarding `CC(C)n1c(=O)c(C(=O)NCCCN2CCCCC2)c(O)c2ccsc21` [PRX-03140], in experiment [5], the improving cognitive function entry is “efficacious for improving cognitive function” and the “lowering Aβ” value is listed as “lowering Aβ”. Besides, in experiment [6], the “effect for improving cognitive function” value is listed as “shows the effect for improving cognitive function”.

The record behind these values is patent US20140057895A1, “INDAZOLE- AND PYRROLOPYRIDINE-DERIVATIVE AND PHARMACEUTICAL USE THEREOF” (priority 2011, published 2014).
